The target in one experiment is PRPK (Homo sapiens (Human), UniProt Q96S44). Kind of experiment: Isothermal titration calorimetry (ITC), PRPK. It is filed as binding. The conditions noted are these: for Kd: 20 μM protein titrated with 200 μM test compound, 20 mM HEPES pH 7.5, 150 mM NaCl, 0.5 mM TCEP, 2% DMSO, 25° C, single site model; for PRPK binding Kd compared with pomalidomide: ITC, comparison in words with control Pomalidomide. The protocol: (§1) All calorimetric experiments were carried out using an Affinity ITC from TA Instruments (New Castle, Del.) equipped with an auto sampler in a buffer containing 20 mM HEPES, pH 7.5, 150 mM NaCl, 0.5 mM TCEP, and 2% DMSO at 25° C. 20 μM protein solution containing PRPK or Cereblon (CRBN) in the calorimetric cell was titrated with 200 μM of a test compound solution using 2 μL injection in 200 seconds intervals using a stirring speed at 125 rpm. Resulting isotherm was fitted with a single site model to yield thermodynamic parameters of ΔH, ΔS, stoichiometry, and Kd using NanoAnalyze software (TA instruments).
Chain of PRPK (Q96S44 whole entry): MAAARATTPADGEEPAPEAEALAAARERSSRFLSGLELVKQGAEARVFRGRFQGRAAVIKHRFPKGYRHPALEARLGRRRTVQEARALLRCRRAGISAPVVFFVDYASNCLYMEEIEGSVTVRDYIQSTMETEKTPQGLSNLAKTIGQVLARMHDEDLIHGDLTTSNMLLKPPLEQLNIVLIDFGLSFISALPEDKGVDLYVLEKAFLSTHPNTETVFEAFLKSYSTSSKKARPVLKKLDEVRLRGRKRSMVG
In general terms: In ITC the heat of successive injections is recorded.

The target in a further experiment is Cereblon (CRBN) (Homo sapiens (Human), UniProt Q96SW2). Kind of experiment: Isothermal titration calorimetry (ITC), Cereblon (CRBN). It is filed as binding. The conditions noted are these: for Kd: 20 μM protein titrated with 200 μM test compound, 20 mM HEPES pH 7.5, 150 mM NaCl, 0.5 mM TCEP, 2% DMSO, 25° C, single site model. As to the method: as §1
Chain of Cereblon (CRBN) (Q96SW2 whole entry, species assumed): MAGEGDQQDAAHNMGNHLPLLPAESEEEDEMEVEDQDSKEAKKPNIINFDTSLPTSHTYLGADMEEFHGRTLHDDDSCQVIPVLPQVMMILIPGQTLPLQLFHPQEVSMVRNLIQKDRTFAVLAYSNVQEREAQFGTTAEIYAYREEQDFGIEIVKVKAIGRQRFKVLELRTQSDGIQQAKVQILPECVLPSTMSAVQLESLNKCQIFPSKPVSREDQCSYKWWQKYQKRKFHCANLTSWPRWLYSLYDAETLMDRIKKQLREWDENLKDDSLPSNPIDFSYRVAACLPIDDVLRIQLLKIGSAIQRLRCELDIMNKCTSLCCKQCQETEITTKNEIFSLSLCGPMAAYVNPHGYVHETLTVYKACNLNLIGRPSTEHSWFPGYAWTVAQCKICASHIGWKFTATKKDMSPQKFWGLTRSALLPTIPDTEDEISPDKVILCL

Each structure is given as a SMILES string. Some results are limits rather than exact numbers.

As usually defined, the Kd is the constant that tells how readily two partners part at equilibrium. A higher Kd goes with weaker binding.

With `C[C@@]1(N2C(=O)c3ccc(C(=O)O)cc3C2=O)CCC(=O)NC1=O` [Compound 12, (R)-2-(3-methyl-2,6-dioxopiperidin-3-yl)-1,3-dioxoisoindoline-5-carboxylic acid], on PRPK, binding was characterised by a dissociation constant (Kd) of 0.28 ± 0.08 µM and the “PRPK binding Kd compared with pomalidomide” value is on record as “lower than Pomalidomide”. Further, at Cereblon (CRBN), the Kd is more than 1000 µM and the “CRBN inhibition (conclusion in words from ITC)” value is “not CRBN inhibitors”.
For `C[C@@]1(N2C(=O)c3ccc(-c4cn[nH]c4)c(O)c3C2=O)CCC(=O)NC1=O` [Compound 22, (R)-4-hydroxy-2-(3-methyl-2,6-dioxopiperidin-3-yl)-5-(1H-pyrazol-4-yl)isoindoline-1,3-dione], the Kd on PRPK and at Cereblon (CRBN) was more than 1000 µM throughout.
Take `O=C1CCC(N2C(=O)c3ccc(-c4cn[nH]c4)c(O)c3C2=O)C(=O)N1` (centres unmarked) [Compound 13, 2-(2,6-dioxopiperidin-3-yl)-4-hydroxy-5-(1H-pyrazol-4-yl)isoindoline-1,3-dione]: on PRPK, the Kd was 1.9 ± 1.7 µM and the “PRPK binding Kd compared with pomalidomide” value is listed as “lower than Pomalidomide”. Further, at Cereblon (CRBN), binding was characterised by a dissociation constant (Kd) of 0.54 µM and the “CRBN inhibition (conclusion in words from ITC)” value is given as “not CRBN inhibitors”.
The matching figures for `C[C@@]1(N2C(=O)c3ccc(-c4n[nH]c(=S)o4)cc3C2=O)CCC(=O)NC1=O` [Compound 30, (R)-2-(3-methyl-2,6-dioxopiperidin-3-yl)-5-(5-thioxo-4,5-dihydro-1,3,4-oxadiazol-2-yl)isoindoline-1,3-dione]: 0.36 ± 0.07 µM, “lower than Pomalidomide”, more than 1000 µM and “not CRBN inhibitors”.
